The results in this text go back to paper PMC5829162, “Rational Design, Synthesis and Biological Evaluation of Pyrimidine-4,6-diamine derivatives as Type-II inhibitors of FLT3 Selective Against c-KIT” (Scientific Reports, 2018).

“And” between values parts separate entries of the source, which are not always exact repeats. Equal values may be shown once. Read-outs that look alike come from different tables or passages of the source.

The target of one data set is T1, FLT3 kinase (Homo sapiens, UniProt P36888).
T1 construct: purchased Invitrogen
T1 sequence (P36888 27-993): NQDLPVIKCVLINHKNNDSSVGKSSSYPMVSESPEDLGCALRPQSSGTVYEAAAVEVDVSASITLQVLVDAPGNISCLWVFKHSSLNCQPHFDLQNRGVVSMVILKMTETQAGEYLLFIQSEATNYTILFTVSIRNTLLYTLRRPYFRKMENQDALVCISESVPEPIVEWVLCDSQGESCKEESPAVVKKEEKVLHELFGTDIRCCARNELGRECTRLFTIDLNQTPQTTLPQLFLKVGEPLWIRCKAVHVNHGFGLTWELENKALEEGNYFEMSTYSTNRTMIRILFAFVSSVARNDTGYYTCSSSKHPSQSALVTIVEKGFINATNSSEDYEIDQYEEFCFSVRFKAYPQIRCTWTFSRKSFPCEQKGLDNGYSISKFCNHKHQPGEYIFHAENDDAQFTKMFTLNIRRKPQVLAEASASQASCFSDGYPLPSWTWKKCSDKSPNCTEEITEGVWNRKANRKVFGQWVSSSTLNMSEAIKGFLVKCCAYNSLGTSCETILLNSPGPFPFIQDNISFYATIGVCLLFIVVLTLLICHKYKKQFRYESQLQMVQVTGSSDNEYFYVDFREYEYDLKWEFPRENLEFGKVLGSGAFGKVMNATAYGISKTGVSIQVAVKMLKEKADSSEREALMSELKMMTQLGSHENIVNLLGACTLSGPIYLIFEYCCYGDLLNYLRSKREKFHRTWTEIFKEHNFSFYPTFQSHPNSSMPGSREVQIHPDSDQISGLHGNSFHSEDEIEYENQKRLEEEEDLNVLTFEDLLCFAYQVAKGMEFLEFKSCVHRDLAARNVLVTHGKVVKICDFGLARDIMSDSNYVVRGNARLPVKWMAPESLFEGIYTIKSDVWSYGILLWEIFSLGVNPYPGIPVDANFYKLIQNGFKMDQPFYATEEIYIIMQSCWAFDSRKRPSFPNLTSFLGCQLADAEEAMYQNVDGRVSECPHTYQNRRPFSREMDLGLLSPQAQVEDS
Put plainly: Biochemical enzyme inhibition assay (microfluidics, Caliper EZ Reader II), FLT3. The conditions noted are these: for IC50: in vitro kinase assay, 60 min pre-incubation, ATP 190 µM, three independent experiments; for LE: ligand efficiency for FLT3 inhibition. As to the method:
Kinase activity was measured in a microfluidics assay that monitors the separation of a phosphorylated product from substrate[31],[32]. […] After, 1 μL was transferred into a 384-well polypropylene assay plate (Greiner, Frickenhausen, Germany). The FLT3 enzyme (Invitrogen™, Grand Island, USA) was diluted in kinase buffer to a concentration of 2 nM and 5 µL of the enzyme mixture was transferred to the assay plate. The inhibitors/FLT3 enzyme were incubated for 60 minutes with minor shaking. […] For positive control, no inhibitor was added. For negative control, no enzyme was added. For running control, quizartinib was utilized. The plate was run until 10–20% conversion based on the positive control wells. The following separation conditions were utilized: upstream voltage −500V; downstream voltage, −1900V; chip pressure −0.8. Percent inhibition was measured for each well comparing starting peptide to phosphorylated product peaks relative to the baseline. Dose response curves, spanning the IC50 dose, were generated in GraphPad Prisim 6 and fit to an exponential one-phase decay line and IC50 values were obtained from the half-life value of the curve. IC50 values were generated in duplicate and error was calculated from the standard deviation between values.
S10. Biochemical Inhibition Assay:1,2 Kinase activity was measured in a microfluidics assay that monitors the separation of a phosphorylated product from substrate. The assay was run using a 12-sipper chip on a Caliper EZ Reader II (PerkinElmer®, Walthman, USA) with separation […]
Walthman, USA]). In 96-well polypropylene plates (Greiner, Frickenhausen, Germany) […]
After, 1 μL was transferred into a 384-well polypropylene assay plate (Greiner, Frickenhausen, Germany). The FLT3 enzyme (Invitrogen™, Grand Island, USA) was diluted in kinase buffer to a concentration of 2 nM and 5 µL of the enzyme mixture was transferred to the assay plate. The inhibitors/FLT3 enzyme were incubated for 60 minutes with minor shaking. A substrate mix was prepared containing ATP (Ambresco®, Solon, USA) and […]
USA) dissolved in kinase buffer, and 5 µL of the substrate mix was added to the assay plate.
For positive control, no inhibitor was added. For negative control, no enzyme was added. For running control, quizartinib was utilized. The plate was run until 10-20% conversion based on the positive control wells. The following separation conditions were utilized: upstream voltage -500V; downstream voltage, -1900V; chip pressure - 0.8. Percent inhibition was measured for each well comparing starting peptide to phosphorylated product peaks relative to the baseline. Dose response curves, spanning the IC50 dose, were generated in GraphPad Prisim 6 and fit to an exponential one-phase decay line and IC50 values were obtained from the half-life value of the curve. IC50 values were generated in duplicate and error was calculated from the standard deviation between values. […]

One may read the melting point as the temperature, or range, at which the solid turns liquid. By IC50 is commonly meant the concentration that inhibits the measured activity by half. The molecule `CN1CCN(c2cc(Nc3ccc(CC(=O)Nc4cc(C(C)(C)C)nn4-c4ccc(Br)cc4)cc3)ncn2)CC1` [13j, 2-(4-(6-(4-Methylpiperazin-1-yl)pyrimidin-4-ylamino)phenyl)-N-(3-tert-butyl-1-(4-bromophenyl)-1H-pyrazol-5-yl)acetamide] returned a melting point of 110 to 112 °C. In addition, at FLT3 kinase (read-out: FLT3 IC50 (nM) ± SD), the half-inhibitory concentration (IC50) worked out at 6020 ± 122 nM. Besides, the LE at FLT3 kinase is 0.18.
Molecule `CC(C)(C)c1cc(NC(=O)Cc2ccc(Oc3cc(Nc4cccc(C(F)(F)F)c4)ncn3)cc2)no1` [13l, 2-(4-(6-(3-(Trifluoromethyl)phenylamino)pyrimidin-4-yloxy)phenyl)-N-(5-tert-butylisoxazol-3-yl)acetamide] showed a melting point of 120 to 122 °C. Also, the IC50 at FLT3 kinase (read-out: FLT3 IC50 (nM) ± SD) is 567 nM and 568 nM. Besides, the LE on FLT3 kinase is reported as 0.23.
On to `CC(C)(C)c1cc(NC(=O)Cc2ccc(Nc3cc(Nc4cccc(C(F)(F)F)c4)ncn3)cc2)no1` [13m, 2-(4-(6-(3-(Trifluoromethyl)phenylamino)pyrimidin-4-ylamino)phenyl)-N-(5-tert-butylisoxazol-3-yl)acetamide], for which the melting point lay within 254 to 256 °C. Also, the half-maximal inhibitory concentration (IC50) on FLT3 kinase (read-out: FLT3 IC50 (nM) ± SD) came out at 1180 ± 527 nM. Also, the LE at FLT3 kinase is 0.22.
The corresponding values for `CC(C)(C)c1cc(NC(=O)Cc2ccc(Nc3cc(NCCCN4CCCC4)ncn3)cc2)no1` [13n, 2-(4-(6-(3-(Pyrrolidin-1-yl)propylamino)pyrimidin-4-ylamino)phenyl)-N-(5-tert-butylisoxazol-3-yl)acetamide] are 154 to 156 °C, 1030 ± 121 nM and 0.23.
In the case of `CC(C)(C)c1cc(NC(=O)Cc2ccc(Nc3cc(Oc4ccc(Br)cc4)ncn3)cc2)no1` [13o, 2-(4-(6-(4-Bromophenoxy)pyrimidin-4-ylamino)phenyl)-N-(5-tert-butylisoxazol-3-yl)acetamide], the melting point was in the range of 188 to 190 °C. Besides, the IC50 at FLT3 kinase (FLT3 IC50 (nM) ± SD) was found to be 14800 ± 248 nM. For the same molecule, the LE on FLT3 kinase is recorded as 0.19.
Turning to `CC(C)(C)c1cc(NC(=O)Cc2ccc(Nc3cc(N4CCOCC4)ncn3)cc2)no1` [13p, 2-(4-(6-Morpholinopyrimidin-4-ylamino)phenyl)-N-(5-tert-butylisoxazol-3-yl)acetamide], the melting point lay within 218 to 220 °C. Also, the IC50 at FLT3 kinase (read-out: FLT3 IC50 (nM) ± SD) came to 395 ± 78 nM. In addition, on FLT3 kinase, the LE is 0.28.
The corresponding values for `CN(C)c1cc(Oc2ccc(CC(=O)Nc3cc(C(C)(C)C)on3)cc2)ncn1` [13q, 2-(4-(6-(Dimethylamino)pyrimidin-4-yloxy)phenyl)-N-(5-tert-butylisoxazol-3-yl)acetamide] are 170 to 172 °C, 8760 ± 127 nM and 0.24.
On the same counts, the results for `CS(=O)(=O)c1ccc(Nc2cc(Nc3ccc(CC(=O)Nc4cccc(C(F)(F)F)c4)cc3)ncn2)cc1` [13s, 2-(4-(6-(4-(Methylsulfonyl)phenylamino)pyrimidin-4-ylamino)phenyl)-N-(3-(trifluoromethyl)phenyl)acetamide] are 225 to 227 °C, 860 ± 30 nM and 0.22.
`O=C(Cc1ccc(Nc2cc(NCCCN3CCCC3)ncn2)cc1)Nc1ccc(OC(F)(F)F)cc1` [13t, 2-(4-(6-(3-(Pyrrolidin-1-yl)propylamino)pyrimidin-4-ylamino)phenyl)-N-(4-(trifluoromethoxy)phenyl)acetamide] returned a melting point of 212 to 214 °C. Moreover, the IC50 at FLT3 kinase (read-out: FLT3 IC50 (nM) ± SD) worked out at 909 ± 95.9 nM. In addition, the LE at FLT3 kinase is 0.22.
The corresponding values for `CNc1cc(Oc2ccc(CC(=O)Nc3ccc(C(C)(C)C)cc3)cc2)ncn1` [13x, 2-(4-(6-(Methylamino)pyrimidin-4-yloxy)phenyl)-N-(4-tert-butylphenyl)acetamide] are 208 to 210 °C, 5090 ± 75.5 nM and 0.25.
In the case of `CNc1cc(Nc2ccc(CC(=O)Nc3ccc(OC(F)(F)F)cc3)cc2)ncn1` [13z, 2-(4-(6-(Methylamino)pyrimidin-4-ylamino)phenyl)-N-(4-(trifluoromethoxy)phenyl) acetamide], the melting point is 220 to 222 °C. For the same molecule, on FLT3 kinase (read-out: FLT3 IC50 (nM) ± SD), the IC50 turned out to be 7370 ± 333 nM. Besides, the LE at FLT3 kinase is reported as 0.23.
As to `Cn1nc(C(C)(C)C)cc1NC(=O)Nc1ccc(Nc2cc(Nc3ccc(S(C)(=O)=O)cc3)ncn2)cc1` [24a, 1-(4-(6-(4-(Methylsulfonyl)phenylamino)pyrimidin-4-ylamino)phenyl)-3-(3-tert-butyl-1-methyl-1H-pyrazol-5-yl)urea], the melting point was in the range of 238 to 240 °C. Besides, the “fold less active than 13a on FLT3” value on FLT3 kinase (enzymatic FLT3 IC50 compared with 13a) was ~ 3 fold. Further, the IC50 at FLT3 kinase (read-out: FLT3 IC50 (nM) ± SD) stood at 41 ± 6.8 nM. On FLT3 kinase, this molecule yielded an LE of 0.27.
In turn, `CNc1cc(Nc2ccc(NC(=O)Nc3cc(C(C)(C)C)nn3C)cc2)ncn1` [24b, 1-(4-(6-(Methylamino)pyrimidin-4-ylamino)phenyl)-3-(3-tert-butyl-1-methyl-1H-pyrazol-5-yl)urea] came in with a melting point of 242 to 244 °C. Also, the IC50 on FLT3 kinase (read-out: FLT3 IC50 (nM) ± SD) came out at 38.2 ± 1.5 nM. Besides, the LE on FLT3 kinase worked out at 0.37.
Molecule `CC(C)(C)c1cc(NC(=O)Nc2ccc(Nc3cc(Nc4ccc(S(C)(=O)=O)cc4)ncn3)cc2)no1` [24c, 1-(4-(6-(4-(Methylsulfonyl)phenylamino)pyrimidin-4-ylamino)phenyl)-3-(5-tert-butylisoxazol-3-yl)urea] displayed a melting point of 245 to 247 °C. The IC50 at FLT3 kinase (read-out: FLT3 IC50 (nM) ± SD) was 29 ± 1.9 nM. The LE at FLT3 kinase is 0.28.
